Data reported in ChEMBL document CHEMBL4619715 (Bioorg Med Chem Lett, 2020).

Tests used:
[1] = Distribution coefficient, logD of compound; type: physicochemical; settings: octanol/water
[2] = Oral bioavailability in rat; type: ADME, organism-based; settings: in vivo
[3] = Oral bioavailability in rhesus monkey; type: ADME, organism-based, Macaca mulatta; settings: in vivo
[4] = Solubility of the compound at pH 2; type: physicochemical; settings: buffer
[5] = Solubility of the compound at pH 7; type: physicochemical; settings: buffer

SMILES: NC(=O)c1cc(-c2ccc(F)cc2)c2ccc(CN3C(=O)CCC3=O)cc2n1
- logD [1]: 2.1
- bioavailability [2]: > 99%
- bioavailability [3]: > 99%

SMILES: CC[C@@](O)(c1cn(Cc2ccc3c(-c4ccc(F)cc4)cc(C(N)=O)nc3c2)nn1)C(F)(F)F
- solubility [4]: < 0.8 µM
- solubility [5]: < 0.8 µM
